The source of these data is PubChem BioAssay (NCI).

Among the test systems are 786-0 renal; A498 renal; A549 NSCLC; CCRF-CEM leukemia; HCC-2998 colon; HCT-15 colon; HOP-92 NSCLC; IGROV1 ovarian; K-562 leukemia; LOX IMVI melanoma; NCI-H522 lung; OVCAR-3 ovarian; RPMI-8226 leukemia; RXF 393 renal; SF-295 CNS; SN12C renal; SNB-19 CNS; SNB-75 CNS; SW-620 colon; UACC-62 melanoma.
Common to all, as to assay: NCI tumour cell line growth inhibition, 48 h

Each structure is given as a SMILES string.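 96-well plates; 48 h exposure; 5 concentrations. Endpoints by linear interpolation between flanking doses. Not reached: highest tested concentration assigned. At the TGI there is no net growth.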

In the case of `CCC(C(=O)C(=O)C(CC)P1(=O)OC(C)(C)CN1C(C)(C)C)P1(=O)OC(C)(C)CN1C(C)(C)C` (stereo unspecified), the TGI in the assay on 786-0 renal, in the assay on A498 renal, with A549 NSCLC, in the assay with CCRF-CEM leukemia, in the assay with HCC-2998 colon and with HCT-15 colon was above 100 µM in each case. In addition, the TGI in the assay with HOP-92 NSCLC, in the assay on IGROV1 ovarian, with K-562 leukemia, with LOX IMVI melanoma, with NCI-H522 lung and with OVCAR-3 ovarian was above 100 µM each time. The TGI in the assay on RPMI-8226 leukemia, with RXF 393 renal, in the assay with SF-295 CNS, in the assay with SN12C renal, in the assay on SNB-19 CNS and in the assay with SNB-75 CNS was above 100 µM in each case. Further, the TGI in the assay on SW-620 colon and in the assay with UACC-62 melanoma was above 100 µM each time.
`CCCCCCc1ccc(C(=O)NO)cc1`: the TGI is 46.6 µM in the assay with 786-0 renal; 81.7 µM in the assay on A498 renal; above 100 µM in the assay with A549 NSCLC; 52.8 µM in the assay with CCRF-CEM leukemia; above 100 µM in the assay with HCC-2998 colon; above 100 µM in the assay on HCT-15 colon. Further, the TGI in the assay on HOP-92 NSCLC was above 100 µM; in the assay on IGROV1 ovarian, above 100 µM; in the assay on K-562 leukemia, above 100 µM; with LOX IMVI melanoma it was 76.9 µM; in the assay on NCI-H522 lung it was 80.4 µM; with OVCAR-3 ovarian it was above 100 µM. Further, the TGI in the assay with RPMI-8226 leukemia was 56.8 µM; in the assay on RXF 393 renal, above 100 µM; in the assay with SF-295 CNS it was above 100 µM; in the assay with SN12C renal, 64.5 µM; with SNB-19 CNS it was above 100 µM; in the assay on SNB-75 CNS it was above 100 µM. The TGI in the assay with SW-620 colon was above 100 µM; in the assay on UACC-62 melanoma, 66.6 µM.
With `O=C1c2ccccc2C(=O)N1CC1S(=O)(=O)OCCOS1(=O)=O`, the TGI in the assay with 786-0 renal, in the assay on A498 renal, in the assay with A549 NSCLC, in the assay on CCRF-CEM leukemia, in the assay on HCC-2998 colon and in the assay on HCT-15 colon was above 100 µM in each case. Moreover, the TGI in the assay with HOP-92 NSCLC, in the assay with IGROV1 ovarian, with K-562 leukemia, in the assay with LOX IMVI melanoma, with NCI-H522 lung and in the assay on OVCAR-3 ovarian was above 100 µM in each case. In addition, the TGI with RPMI-8226 leukemia, with RXF 393 renal, in the assay on SF-295 CNS, in the assay with SN12C renal, in the assay on SNB-19 CNS and in the assay on SNB-75 CNS was above 100 µM each time. Also, the TGI in the assay with SW-620 colon and in the assay with UACC-62 melanoma was above 100 µM each time.
As for `O=c1c2cc(-c3ccccc3)sc2nc2n1N=C(c1ccc(Cl)cc1)CS2`, the TGI in the assay with 786-0 renal, with A498 renal, in the assay on A549 NSCLC, with CCRF-CEM leukemia, with HCC-2998 colon and with HCT-15 colon was above 100 µM throughout. The TGI with HOP-92 NSCLC, in the assay on IGROV1 ovarian, in the assay with K-562 leukemia, with LOX IMVI melanoma, in the assay on NCI-H522 lung and with OVCAR-3 ovarian was above 100 µM throughout. Besides, the TGI in the assay with RPMI-8226 leukemia, in the assay on RXF 393 renal, in the assay with SF-295 CNS, in the assay with SN12C renal, with SNB-75 CNS and in the assay on SW-620 colon was above 100 µM throughout. The TGI in the assay with UACC-62 melanoma was above 100 µM.
As to `Nc1nc(N)c2cc(-c3ccccc3)cnc2n1`, the TGI was 21.5 µM in the assay on 786-0 renal; 28.5 µM with A498 renal; 28 µM in the assay with A549 NSCLC; 98.3 µM with CCRF-CEM leukemia; above 100 µM in the assay with HCC-2998 colon; above 100 µM with HCT-15 colon. Besides, the TGI in the assay on HOP-92 NSCLC was 30.1 µM; in the assay with IGROV1 ovarian, 26.8 µM; in the assay on K-562 leukemia, 17.7 µM; with LOX IMVI melanoma, 37.6 µM; in the assay with NCI-H522 lung, 44.9 µM; in the assay on OVCAR-3 ovarian it was 35.8 µM. Also, the TGI in the assay on RPMI-8226 leukemia stood at 48.9 µM; in the assay on RXF 393 renal, 22.5 µM; with SF-295 CNS it was 33 µM; in the assay with SN12C renal it was 29.1 µM; with SNB-19 CNS, 38.3 µM; in the assay with SNB-75 CNS it was 17.3 µM. For the same compound, the TGI with SW-620 colon was found to be 22.9 µM.
Consider `Nc1nc(Cl)c(/C=N\O)c(NCC2(CO)CCC2)n1`, for which the TGI with 786-0 renal, with A498 renal, in the assay with A549 NSCLC, in the assay with CCRF-CEM leukemia, with HCC-2998 colon and in the assay with HCT-15 colon was above 100 µM in each case. Further, the TGI in the assay with HOP-92 NSCLC, in the assay with K-562 leukemia, in the assay with LOX IMVI melanoma, with NCI-H522 lung, in the assay on OVCAR-3 ovarian and in the assay on RPMI-8226 leukemia was above 100 µM throughout. The TGI in the assay on RXF 393 renal, with SF-295 CNS, in the assay on SN12C renal, in the assay on SNB-19 CNS, in the assay with SNB-75 CNS and in the assay on SW-620 colon was above 100 µM in each case.
